Our source for the Ki values is BindingDB's records for patent US12180196 (Hoffmann-La Roche, 2024).

The target of the experiment is Cannabinoid receptor 2 (Homo sapiens, UniProt P34972). Kind of experiment: Radioligand Binding Assay. As to the method: The affinity of the compounds of the invention for cannabinoid CB1 receptors was determined using recommended amounts of membrane preparations (PerkinElmer) of human embryonic kidney (HEK) cells expressing the human CNR1 or CNR2 receptors in conjunction with 1.5 or 2.6 nM [3H]-CP-55,940 (Perkin Elmer) as radioligand, respectively. Binding was performed in binding buffer (50 mM Tris, 5 mM MgCl2, 2.5 mM EDTA, and 0.5% (wt/vol) fatty acid free BSA, pH 7.4 for CB1 receptor and 50 mM Tris, 5 mM MgCl2, 2.5 mM EGTA, and 0.1% (wt/vol) fatty acid free BSA, pH 7.4 for CB2 receptor) in a total volume of 0.2 ml for 1 h at 30° C. shaking. The reaction was terminated by rapid filtration through microfiltration plates coated with 0.5% polyethylenimine (UniFilter GF/B filter plate; Packard). Bound radioactivity was analyzed for Ki using nonlinear regression analysis (Activity Base, ID Business Solution, Limited), with the Kd values for [3H]CP55,940 determined from saturation experiments. The compounds of formula (I) show an excellent affinity for the CB2 receptor.
Sequence of Cannabinoid receptor 2 (P34972 whole entry): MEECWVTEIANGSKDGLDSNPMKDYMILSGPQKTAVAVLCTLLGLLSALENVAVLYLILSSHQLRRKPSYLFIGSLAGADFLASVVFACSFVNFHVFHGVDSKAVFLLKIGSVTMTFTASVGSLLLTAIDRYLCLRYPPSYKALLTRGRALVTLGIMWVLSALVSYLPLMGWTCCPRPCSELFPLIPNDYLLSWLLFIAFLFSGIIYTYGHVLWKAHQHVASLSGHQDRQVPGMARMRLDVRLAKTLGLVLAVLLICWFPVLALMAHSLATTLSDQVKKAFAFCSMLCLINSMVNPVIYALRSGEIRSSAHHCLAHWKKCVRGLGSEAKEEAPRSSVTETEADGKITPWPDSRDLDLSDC

The compound `CCOC(=O)C(CC)(CC)NC(=O)c1ccc(N2CC(OCF)C2)c(OCC2CC2)n1` [US12180196, Example 3] displayed a Ki of 14 nM.

As usually defined, the Ki is the equilibrium dissociation constant of an inhibitor or competing ligand from its target.
